In US9458172B2, “Pyridinyl and pyrimidinyl sulfoxide and sulfone derivatives” (priority 2012, dated 2016):
Read-outs that look alike come from different tables or passages of the source.

Assays:
A2780 cells = assay: In-Vitro Cell Proliferation Assay (SRB)
Experimental: Assay 2: In-Vitro Cell Proliferation Assay
Assay Method. […] The compounds were then further diluted to 10 OX final concentration in culture media, whereupon 20 μL of each dilution was added to the plated cells with controls (e.g. DMSO and blank) to make a final volume of 200 μL. The final DMSO concentration in each well was 0.1%. The plates were then incubated for 72 h at 37° C. in a 5% CO2 incubator. The number of viable cells was then assessed using sulforhodamine B (SRB) assay. Cells were fixed at 4° C. for 1 h with the addition of 50 μL 30% trichloroacetic acid (TCA) to make a final concentration of 6% TCA. The plates were washed four times with H2O and allowed to dry for at least 1 h, whereupon 100 μL of a 4% SRB in 1% acetic acid solution was added to each well and incubated at rt for at least 30 min. The plates were then washed three times with 1% acetic acid, dried, and treated with 100 μL of 10 mM Tris-Base solution. The plates were then read in a microplate reader at an absorbance of 570 nm. Background was generated on a separate plate with media only.
Determination of IC50 Values. First, the signals from the background plate were averaged, then the background was subtracted from the test plates.
The specificity of the compounds were determined via cell viability assay in the presence of the compound and either NAM or NMN Percent inhibitions were determined using the method given above.

NAMPT = NAMPT (Homo sapiens (Human), UniProt P43490); assay: Biochemical Inhibition Assay (NAMPT enzymatic reaction, NMN quantified by mass spectrometry); details: 33 nM recombinant His-tagged NAMPT, 1 μM NAM, 30 min at rt
Experimental: Assay 1: Biochemical Inhibition Assay
NAMPT protein purification. Recombinant His-tagged NAMPT was produced in E. coli cells, purified over a Ni column, and further purified over a size-exclusion column by XTAL Biostructures.
The NAMPT Enzymatic Reaction. The NAMPT enzymatic reactions were carried out in Buffer A (50 mM Hepes pH 7.5, 50 mM NaCl, 5 mM MgCl2, and 1 mM THP) in 96-well V-bottom plates. The compound titrations were performed in a separate dilution plate by serially diluting the compounds in DMSO to make a 100× stock. […] The compound and enzyme mixture was incubated for 15 min at rt, then 10 μL of 10× substrate and co-factors in Buffer A were added to the test well to make a final concentration of 1 μM NAM, […] 5-Phospho-D-ribose 1-diphosphate (PRPP), and 2.5 mM Adenosine 5′-triphosphate (ATP). The reaction was allowed to proceed for 30 min at rt, then was quenched with the addition of 11 μL of a solution of formic acid and L-Cystathionine to make a final concentration of 1% formic acid and 10 μM L-Cystathionine. Background and signal strength was determined by addition (or non-addition) of a serial dilution of NMN to a pre-quenched enzyme and cofactor mix.
Quantification of NMN. A mass spectrometry-based assay was used to measure the NAMPT reaction product, β-nicotinamide mononucleotide (NMN), and the internal control (L-Cystathionine). NMN and L-Cystathionine were detected using the services of Biocius Lifesciences with the RapidFire system. In short, the NMN and L-Cystathionine were bound to a graphitic carbon cartridge in 0.1% formic acid, eluted in 30% acetonitrile buffer, and injected into a Sciex 4000 mass spectrometer. The components of the sample were ionized with electrospray ionization and the positive ions were detected. […] The fragments are quantified and the analyzed by the following method.
Determination of IC50 Values. First, the NMN signal was normalized to the L-Cystathionine signal by dividing the NMN signal by the L-Cystathionine signal for each well. The signal from the background wells were averaged and subtracted from the test plates.

[1] = Homo sapiens, A2780, 72 h, read-out: Cell Proliferation (IC50)
[2] = read-out: Cell Proliferation (IC50), A2780 cells, 72 h, sulforhodamine B
[3] = Homo sapiens, A2780, 72 h, read-out: Cell Proliferation (IC50), A2780 cells, 72 h, sulforhodamine B

Sequence of NAMPT (P43490 whole entry): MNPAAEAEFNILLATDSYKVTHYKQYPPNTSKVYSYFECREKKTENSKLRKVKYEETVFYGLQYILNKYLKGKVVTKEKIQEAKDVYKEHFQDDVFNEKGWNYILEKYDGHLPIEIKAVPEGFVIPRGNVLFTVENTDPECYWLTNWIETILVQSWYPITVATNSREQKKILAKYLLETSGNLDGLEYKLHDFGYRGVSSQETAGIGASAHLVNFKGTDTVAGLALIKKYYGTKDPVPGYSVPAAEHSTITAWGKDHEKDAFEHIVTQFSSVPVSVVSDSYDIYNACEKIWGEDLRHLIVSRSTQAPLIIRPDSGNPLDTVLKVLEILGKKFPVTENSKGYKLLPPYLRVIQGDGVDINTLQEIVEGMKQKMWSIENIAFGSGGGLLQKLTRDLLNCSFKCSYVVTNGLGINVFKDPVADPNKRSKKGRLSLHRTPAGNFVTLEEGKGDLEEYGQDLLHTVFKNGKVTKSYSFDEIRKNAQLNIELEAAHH

SMILES	IC50 (A2780 cells; [1]) [nM]	IC50 (NAMPT) [nM]	IC50 (A2780 cells; [2]) [nM]	IC50 (A2780 cells; [3]) [nM]
O=C(NCc1ccc([S+]([O-])c2cc(F)cc(F)c2)cn1)c1cc2cnccc2[nH]1 (racemic) [Example 9, 1H-Pyrrolo[3,2-c]pyridine-2-carboxylic acid [5-(3,5-difluoro-benzenesulfinyl)-pyridin-2-ylmethyl]-amide (racemic)]	209	55.3		
O=C(NCc1ccc([S+]([O-])c2cc(F)cc(F)c2)cn1)c1ccc2nccn2c1 (racemic) [Example 14, Imidazo[1,2-a]pyridine-6-carboxylic acid [5-(3,5-difluoro-benzenesulfinyl)-pyridin-2-ylmethyl)-amide (racemic)]		36.5	51.3	
O=C(NCc1ccc([S+]([O-])c2cc(F)cc(F)c2)cn1)c1cnc2[nH]ncc2c1 (racemic) [Example 15, 1H-Pyrazolo[3,4-b]pyridine-5-carboxylic acid [5-(3,5-difluoro-benzenesulfinyl)-pyridin-2-ylmethyl]-amide (racemic)]	309	357		
O=C(NCc1ccc([S+]([O-])c2cc(F)cc(F)c2)cn1)c1cnc2nccn2c1 (racemic) [Example 24, Imidazo[1,2-a]pyrimidine-6-carboxylic acid [5-(3,5-difluoro-benzenesulfinyl)-pyridin-2-ylmethyl]-amide (racemic)]	275	16.2		
O=C(NCc1ccc([S+]([O-])c2cc(F)cc(F)c2)cn1)c1ccc2nccn2c1 (racemic) [Example 55, Imidazo[1,2-a]pyridine-6-carboxylic acid [5-(3,5-difluoro-benzenesulfinyl)-pyridin-2-ylmethyl]-amide (racemic)]		15.9	41.9	
O=C(NCc1ccc([S+]([O-])c2cc(F)cc(F)c2)cn1)c1ccc2nccn2c1 (racemic) [Example 58, Imidazo[1,2-a]pyridine-6-carboxylic acid [5-(3,5-difluoro-benzenesulfinyl)-pyridin-2-ylmethyl]-amide (racemic)]		407	959	
O=C(NCc1ccc([S+]([O-])c2cccc(C(F)(F)F)c2)cn1)c1cc2ccncc2o1 (racemic) [Example 87, Furo[2,3-c]pyridine-2-carboxylic acid [5-(3-trifluoromethyl-benzenesulfinyl)-pyridin-2-ylmethyl]-amide (racemic)]	15.2	17.7		
O=C(NCc1ccc([S+]([O-])c2cccc(OC(F)(F)F)c2)cn1)N1Cc2ccncc2C1 (racemic) [Example 89, 1,3-Dihydro-pyrrolo[3,4-c]pyridine-2-carboxylic acid [5-(3-trifluoromethoxy-benzenesulfinyl)-pyridin-2-ylmethyl]-amide (racemic)]	18.6	8		
O=C(NCc1ccc([S+]([O-])c2cccc(OC(F)(F)F)c2)cn1)c1cc2ccncc2o1 (racemic) [Example 90, Furo[2,3-c]pyridine-2-carboxylic acid [5-(3-trifluoromethoxy-benzenesulfinyl)-pyridin-2-ylmethyl]-amide (racemic)]	25.5	16.2		
O=C(NCc1ccc([S+]([O-])c2cccc(OC(F)(F)F)c2)cn1)c1ccc2nccn2c1 (racemic) [Example 101, Imidazo[1,2-a]pyridine-6-carboxylic acid [5-(3-trifluoromethoxy-benzenesulfinyl)-pyridin-2-ylmethyl]-amide (racemic)]		31.5		40.2
CC(C)CN1CCC([S+]([O-])c2ccc(CNC(=O)c3cc4ccncc4o3)nc2)CC1 (racemic) [Example 102, Furo[2,3-c]pyridine-2-carboxylic acid [5-(1-isobutyl-piperidine-4-sulfinyl)-pyridin-2-ylmethyl]-amide (racemic)]	25.6	69.3		
O=C(NCc1ccc(S(=O)(=O)c2cc(F)cc(F)c2)cn1)c1cc2ccncc2o1 [Example 5, Furo[2,3-c]pyridine-2-carboxylic acid [5-(3,5-difluoro-benzenesulfonyl)-pyridin-2-ylmethyl]-amide]				5.2
O=C(NCc1ncc(S(=O)(=O)c2ccccc2)cn1)c1cc2ccncc2o1 [Example 11, Furo[2,3-c]pyridine-2-carboxylic acid (5-benzenesulfonyl-pyrimidin-2-ylmethyl)-amide]	314			
O=C(NCc1ccc(S(=O)(=O)c2cccc(OC(F)(F)F)c2)cn1)c1cnc2[nH]ncc2c1 [Example 19, 1H-Pyrazolo[3,4-b]pyridine-5-carboxylic acid [5-(3-trifluoromethoxy-benzenesulfonyl)-pyridin-2-ylmethyl]-amide]				28.3
O=C(NCc1ccc(S(=O)(=O)c2cccc(OC(F)(F)F)c2)cn1)c1cc2cnccc2[nH]1 [Example 21, 1H-Pyrrolo[3,2-c]pyridine-2-carboxylic acid [5-(3-trifluoromethoxy-benzenesulfonyl)-pyridin-2-ylmethyl]-amide]				10.2
O=C(NCc1ccc(S(=O)(=O)c2cccc(C(F)(F)F)c2)cn1)c1cc2ccncc2o1 [Example 22, Furo[2,3-c]pyridine-2-carboxylic acid [5-(3-trifluoromethyl-benzenesulfonyl)-pyridin-2-ylmethyl]-amide]				5.4
CCCn1cc(S(=O)(=O)c2ccc(CNC(=O)c3cc4ccncc4o3)nc2)cn1 [Example 61, Furo[2,3-c]pyridine-2-carboxylic acid [5-(1-propyl-1H-pyrazole-4-sulfonyl)-pyridin-2-ylmethyl]-amide]	5.3			
CC(C)n1cc(S(=O)(=O)c2ccc(CNC(=O)c3cc4ccncc4o3)nc2)cn1 [Example 62, Furo[2,3-c]pyridine-2-carboxylic acid [5-(1-isopropyl-1H-pyrazole-4-sulfonyl)-pyridin-2-ylmethyl]-amide]				11.6
O=C(NCc1ccc(S(=O)(=O)c2cc(F)cc(N3CCOCC3)c2)cn1)c1cc2ccncc2o1 [Example 88, Furo[2,3-c]pyridine-2-carboxylic acid [5-(3-fluoro-5-morpholin-4-yl-benzenesulfonyl)-pyridin-2-ylmethyl]-amide]				2
O=C(NCc1ccc(S(=O)(=O)c2ccc(N3CCOCC3)cc2)cn1)N1Cc2ccncc2C1 [Example 97, 1,3-Dihydro-pyrrolo[3,4-c]pyridine-2-carboxylic acid [5-(4-morpholin-4-yl-benzenesulfonyl)-pyridin-2-ylmethyl]-amide]				4.23
O=C(NCc1ccc(S(=O)(=O)C2CCN(C3COC3)CC2)cn1)c1cc2ccncc2o1 [Example 103, Furo[2,3-c]pyridine-2-carboxylic acid [5-(1-oxetan-3-yl-piperidine-4-sulfonyl)-pyridin-2-ylmethyl]-amide]				38.9
O=C(NCc1ccc(S(=O)(=O)C2CCN(C3CCOCC3)CC2)cn1)c1cc2ccncc2o1 [Example 105, Furo[2,3-c]pyridine-2-carboxylic acid {5-[1-(tetrahydro-pyran-4-yl)-piperidine-4-sulfonyl]-pyridin-2-ylmethyl)-amide]				28.6
CN1CCN(c2ccc(S(=O)(=O)c3ccc(CNC(=O)c4cc5ccncc5o4)nc3)cn2)CC1 [Example 113, N-[[5-[[6-(4-methylpiperazin-1-yl)-1-pyridyl]sulfonyl]-2-pyridyl]methyl]furo[2,3-c]pyridine-2-carboxamide]			0.488	
CCCn1cc(S(=O)(=O)c2ccc(CNC(=O)N3Cc4ccncc4C3)nc2)cn1 [Example 140, N-[[5-(1-propylpyrazol-4-yl)sulfonyl-2-pyridyl]methyl]-1,3-dihydropyrrolo[3,4-c]pyridine-2-carboxamide]				37.2
COc1cc(F)cc(S(=O)(=O)c2ccc(CNC(=O)c3cnc4[nH]ncc4c3)nc2)c1 [Example 144, N-[[5-(3-fluoro-5-methoxy-phenyl)sulfonyl-2-pyridyl]methyl]-1H-pyrazolo[3,4-b]pyridine-5-carboxamide]				41.5
CCN(C)c1ncc(S(=O)(=O)c2ccc(CNC(=O)c3cc4ccncc4o3)nc2)s1 [Example 146, N-[[5-[2-[ethyl(methyl)amino]thiazol-5-yl]sulfonyl-2-pyridyl]methyl]furo[2,3-c]pyridine-2-carboxamide]				3.03
CCn1cc(S(=O)(=O)c2ccc(CNC(=O)c3cc4ccncc4o3)nc2)cn1 [Example 176, N-[[5-(l-ethylpyrazol-4-yl)sulfonyl-2-pyridyl]methyl]furo[2,3-c]pyridine-2-carboxamide]				58.8
